From patent US6593275B1, “Use of prolines for improving growth and other properties of plants and algae” (The Regents of the University of California, priority 2000, dated 2003)
Where “and” joins values, the source holds several entries; their conditions need not be identical. Equal values may be shown once. Marks after values point to notes of the source that are not given here.

What was measured:
[1] = test system: oat plants (commercial cultivar Lodi); experiment: Daily root treatment of oats with 2-hydroxy-5-oxoproline; format: in vivo
Description: (§1) Having generally described the invention, the following EXAMPLES provide additional details of the effects of the metabolite, 2-hydroxy-5-oxoproline and other prolines on plant properties. In the EXAMPLES, the concentration of 2-hydroxy-5-oxoproline in plant leaves was determined by extracting the 2-hydroxy-5-oxoproline into acidified water from a known weight of fresh leaf tissue. The sampled leaves were fully extended and photosynthetically active. The amount of 2-hydroxy-5-oxoproline was measured using a high-performance liquid chromatograph fitted with an optical detector (210 nm) and a column packed with a sulfonated polystyrene di-vinyl benzene polymer suitable for ion-exclusion chromatography of Kreb cycle intermediates. The metabolite was eluted with 0.01N H2SO4 in water. The chromatograph peak corresponding to 2-hydroxy-5-oxoproline was identified by the known column retention time of 2-hydroxy-5-oxoproline. A standard curve was prepared using chemically synthesized 2-hydroxy-5-oxoproline (structure confirmed using 13-C nuclear magnetic resonance) and varying the amount of this standard injected into the system. The area integrated under the peak was correlated with the known amount of standard injected into the chromatograph. The amount of 2-hydroxy-5-oxoproline in leaf tissue samples could then be quantitatively determined from the area under the appropriate peak.
Also in the EXAMPLES, plants were grown at 73° F. with 16 h length days and 8 h length nights. […]
The treatment was commenced when the seedlings were 7 days old and continued for 56 days; the 2-hydroxy-5-oxoproline was supplied daily to their roots as 50 ml of between 0.5 to 50 μM solutions of 2-hydroxy-5-oxoproline in Hoagland's plant nutrient solution having a pH of 6.3. […] When the amount of dry weight was expressed as a function of fresh weight, the percent dry weight of the treated plants ranged from 8.1 to 8.4% when compared with 7.6% for untreated control plants. […]

[2] = test system: lettuce; experiment: Weekly foliar treatment of lettuce with 2-hydroxy-5-oxoproline; format: in vivo
Description: as §1
(§2) Also in the EXAMPLES, plants were grown at 73° F. with 16 h length days and 8 h length nights. Fluorescent lights were supplemented with incandescent bulbs to generate intensities of 1760, 980 or 360 microeinsteins per meter squared per second as indicated in the EXAMPLES. Plants were grown in a standard potting mixture of peat moss, vermiculite and perlite, and nutrients were supplied by watering daily with the commonly used Hoagland's plant nutrient solution which contains an array of known plant nutrients and is considered to be appropriate to meet the nutrient needs of plants as they normally receive them from soil.
The fresh weight, dry weight, percent dry weight, 2-hydroxy-5-oxoproline concentration in the leaves, and the CO2 fixation rates are all increased in the treated plants. The greater dry weight percent increases the value of these plants and that of algae as fuel because the increase provides a greater amount of combustible material per gram of fresh weight (that is, a greater amount of carbon was fixed by the plant), and because an increase in dry weight percent reduces the water content in the fuel which is an energy cost when the fuel is combusted. It also increases the value of these plants as sources of biomass suitable for conversion to other products such as chemicals, liquid fuels, or hydrogen, to name a few examples. Treatments were applied weekly to the foliar parts of the plants using an air brush until approximately 20% drip. The aqueous treatment solution contained 2-hydroxy-5-oxoproline (10 mg/liter) in 0.07% sodium laurel sulfate, and 1.2% glycerol at a pH of 6.3. The plants were harvested at 63 days of age after 7 treatments; the harvest was made 7 days after the last treatment. These plants were provided Hoagland's plant nutrient solution to their roots and grown under light intensity of […] microeinsteins.
At harvest (63 days of age) none of the 12 control plants had emerged flowering structures, whereas 6 of the 12 treated plants had well-developed flowering structures.

[3] = test system: alfalfa commercial cultivar Saranac; experiment: Daily root treatment of alfalfa: growth, nodulation and flowering; format: in vivo
Description: as §2
Growth and nodulation were improved by the treatment. The alfalfa commercial cultivar Saranac, was grown as described hereinabove using 1760 microeinsteins per meter squared per second as the light intensity, and watered daily with quarter-strength Hoagland's plant nutrient solution that had been modified to replace the nitrogen (nitrate) with chloride in the solution. Nodulating alfalfa seedlings were treated beginning at about 4 days of age, with the same quantity of 2-hydroxy-5-oxoproline as described in EXAMPLE 1 for plants receiving the 2-hydroxy-5-oxoproline through their roots.
The time to flowering or emergence of seed structures of treated daily and untreated plants was tracked in alfalfa and oats.

[4] = test system: Switchgrass (commercial cultivar Alamo); experiment: Daily root treatment of switchgrass; format: in vivo
Description: as §2
Average fresh weight of the foliar part of the plants was 115% of that for the control plants.

[5] = test system: wildtype oats (commercial cultivar Lodi); experiment: Daily root treatment of oats; selection of responders by CO2 fixation rate and tillers; format: in vivo
Description: Oats were treated with 2-hydroxy-5-oxoproline through their roots as described in EXAMPLE 1. Individual plants that responded to the increased level of 2-hydroxy-5-oxoproline were identified by measuring the rate of CO2 fixation using a CO2 fixation meter at the maximum light intensity for photosynthetic carbon dioxide fixation of 2000 microeinsteins per meter squared per second. The rates were measured in the leaves of treated plants on two successive days and the plants were allowed to mature and produce seed.

[6] = test system: oat plants; experiment: Root treatment of oats; effects of increasing leaf/root GS ratio on growth and leaf 2-hydroxy-5-oxoproline; format: in vivo; conditions: for Whole Plant Fresh Weight (FWT): oats, compound delivered to the roots, controls 14.95; for 2-Hydroxy-5-oxoproline in Leaf: treated oats, controls 4.9
Description: as §1, §2
(§3) TABLE 5 and FIG. 3 hereof show the results of increasing the ratio of leaf/root GS activity on plant growth and on the concentration of 2-hydroxy-5-oxoproline in the leaves of oat plants treated with a compound (tabtoxinine-β-lactam) that binds to glutamine synthetase and impairs the normal destruction of this enzyme, thereby causing the leaf GS activity to increase while the root GS activity decreases. (For methodology, see, e.g., T. Knight, D. Bush, and P. Langston-Unkefer, Plant Physiol. 88, 333 (1988)). The compound (Tabtoxinine-β-lactam) was delivered to the roots. […] The level of 2-hydroxy-5-oxoproline was also observed to increase in the leaves of these plants as a consequence of the increased leaf/root GS activity ratio.

[7] = test system: glutamine synthetase; experiment: Glutamine synthetase activity in leaf and root of treated oats (transferase assay); format: in vivo; conditions: for GS Activity, Leaf: leaf of treated oats, controls 10.5; for GS Activity, Root: root of treated oats, controls 7.8; for Leaf/Root GS Activity Ratio: treated oats, controls 1.35
Description: Glutamine synthetase activity was measured using the transferase assay as described in “Glutamine Synthetase (E. coli)” by B. Shapiro and E. Stadtman, Meth. Enzym. 17A, 910 (1970). The GS activity is expressed in micromoles per gram of fresh weight of tissue per minute.
as §3

[8] = test system: Chlorella sorokinian; experiment: Growth rate of algae with 2-hydroxy-5-oxoproline in growth medium; format: cell-based; conditions: treated algae, CO2 sole carbon source; untreated approximately 60 h
Description: The growth rate of algae, Chlorella sorokinian (obtained from the American Type Culture Collection), was increased when 2-hydroxy-5-oxoproline was added to the growth medium. The mass accumulation growth curve for this single-cell photosynthetic organism is described as a sigmoidal function. […] This reflects substantially accelerated growth for the treated algae cultures when compared with untreated cultures. The growth medium for algae growth is described in Biotechnology & Bioengineering Vol. IV by Daboll et al., pages 281-297 (1962). Carbon dioxide was provided as the sole carbon source and was allowed to sparge into the cultures of both treated and untreated cultures. The light source supplied approximately 980 ft candles. Media pH was initially adjusted to 8.0 using either NaOH or HCl, and subsequently maintained at pH 7.0 by controlling the introduction of CO2.

[9] = test system: thrip; experiment: Thrip infestation of alfalfa plants with elevated 2-hydroxy-5-oxoproline; format: in vivo; conditions: of 80 plants, one week after initial exposure; controls 15 of 80
Source text: Thrip infestation of plants having increased 2-hydroxy-5-oxoproline concentration was compared with that of control plants having a normal level of 2-hydroxy-5-oxoproline in their leaves. Control (80 plants) and plants with elevated levels of 2-hydroxy-5-oxoproline (80 plants) were subjected to thrip infestation; these two sets of plants were randomly intermingled in the greenhouse to assure equal exposure to the pest. Of the set of control plants, 15 were infested with thrip while only 11 of the other set of plants were infested with thrip one week after initial exposure to the pests. The light intensity for growth was approximately 1760 microeinsteins per meter squared per second.

[10] = test system: Cantaloupe-Imperial; experiment: Single foliar treatment of cantaloupe seedlings; format: in vivo; conditions: 16 days old, harvested 9 day after a single treatment, untreated 0.85
Description: (§4) TABLE 7 and TABLE 8 show the results when commercial vegetables such as cantaloupe, and tomatoes, and a crop such as cotton were tested for the effects of the metabolite on their growth rates. These plants received one foliar application of 2-hydroxy-5-oxoproline as young seedlings. These plants grew more rapidly as determined by either fresh weight or leaf length. The cantaloupe and cotton seedlings were harvested and their fresh weight was determined.
(§5) *Plants were 16 days old and were harvested 9 day after the treated plants had received a single treatment.

[11] = test system: Cotton-Pima; experiment: Single foliar treatment of cotton seedlings; format: in vivo; conditions: 16 days old, harvested 9 day after a single treatment, untreated 1.27
Description: as §4, §5

[12] = test system: Tomato-Halley 3155; experiment: Multiple foliar treatment of tomato; format: in vivo; conditions: 24 days old, 5 weekly treatments, untreated 11.97
Description: as §4
** Plants were 24 days old and treated plants had received 5 weekly treatments.

[13] = test system: oat plants; experiment: Foliar treatment of oats with 5-oxoproline; format: in vivo; conditions: oats harvested 17 days after single foliar treatment, 40.5 mg per milliliter, 1% dimethylsulfoxide, pH 6.3
Description: A solution containing 40.5 mg per milliliter of 2-pyrrolidone-5-carboxylic acid and 1% dimethylsulfoxide in water at a pH of 6.3 was applied, but other solutions of this compound were also found to be effective. These plants were grown under lights of 980 microeinsteins per meter squared per second and the treatment was applied to their foliar parts.

[14] = lettuce, harvest at 63 days, control 100%
[15] = alfalfa, daily root treatment (soil), controls 100
[16] = individual treated oat plants, non-responders

O=C1CC[C@@](O)(C(=O)O)N1 [2-hydroxy-5-oxoproline]
seed structures displayed earlier than untreated control plants ([1]; oats treated daily): 3 to 5 days | 2-Hydroxy-5-oxoproline Concentration in Leaf ([1]; oats, daily root treatment, control 4.9): 7.0 micromoles/gFWT | Whole Plant Fresh Weight (FWT) ([1]; oats, roots treated daily for 56 days with 50 ml of 0.5 to 50 μM solution, control 14.95): 18.06 g | CO2 Fixation Rate ([2]; 34 day-old lettuce plants, control 6.6): 9.0 micromoles CO2 fixed/m^2/sec | CO2 Fixation Rate ([2]; 57 day-old lettuce plants, control 6.9): 9.6 micromoles CO2 fixed/m^2/sec | Whole Plant Fresh Weight (FWT) ([2]; lettuce, 7 weekly foliar treatments 10 mg/liter, harvest at 63 days, control 55.3): 65.2 g | Whole Plant Dry Weight (DW) ([2]; lettuce, harvest at 63 days, control 4.00): 6.35 g | Whole Plant Dry Weight, percent of control [2, 14]: 159% | Whole Plant Fresh Weight, percent of control [2, 14]: 118% | 2-Hydroxy-5-oxoproline Concentration in Leaf ([2]; lettuce, weekly foliar treatment, control 6.25): 13.37 micromoles/gFWT | 2-Hydroxy-5-oxoproline Concentration in Leaf, percent of control ([2]; lettuce, control 100%): 212% | number of plants with well-developed flowering structures ([2]; of the 12 treated lettuce plants at harvest (63 days of age), none of 12 controls): 6 | flowered sooner than untreated plants ([3]; alfalfa treated daily): 2 to 5 days | Nodule number/plant (%) [3, 15]: 214% | Nodule weight/plant (%) [3, 15]: 165% | Whole plant Fresh weight (%) [3, 15]: 145% | Average fresh weight of the foliar part, percent of control plants ([4]; switchgrass, daily root treatment): 115% | dry weight per unit of fresh weight, foliar parts ([4]; treated switchgrass, untreated 14.9%): 16.5% | dry weight per unit of fresh weight, roots ([4]; treated switchgrass, untreated 16.7%): 12.05% | emergence of 3rd and 4th leaves (FIG. 4) ([4]; treated versus control switchgrass, as a function of time): consistently emerged leaves sooner than did the control plants | Number of Tillers in Mature Plant ([5]; average of non-responders, average of untreated plants 13.7): 14.0 | CO2 fixation Rate as Differential CO2 Concentration ([5]; average of non-responders, average of untreated plants 18.2): 18.2 ppm | Number of Tillers in Mature Plant ([5]; average of responders, average of untreated plants 13.7): 17.0 | CO2 fixation Rate as Differential CO2 Concentration ([5]; average of responders, average of untreated plants 18.2): 25.3 ppm | CO2 fixation Rate as Differential CO2 Concentration [5, 16]: 19.9 ppm and 19.6 ppm and 17.2 ppm and 16.1 ppm | Number of Tillers in Mature Plant [5, 16]: 14 (2×) and 13 and 15 | Number of Tillers in Mature Plant ([5]; individual treated oat plants, responders): 21 (2×) and 19 and 12 and 15 and 17 (3×) and 13 and 18 | CO2 fixation Rate as Differential CO2 Concentration ([5]; individual treated oat plants, responders, light 2000 microeinsteins): 25.2 ppm and 24.5 ppm and 24.2 ppm (2×) and 23.6 ppm and 23.2 ppm and 28.9 ppm and 28.0 ppm and 25.9 ppm and 25.3 ppm | Whole Plant Fresh Weight (FWT) [6]: 18.07 g | 2-Hydroxy-5-oxoproline in Leaf [6]: 7.04 micromoles/g FWT | GS Activity, Leaf [7]: Leaf: 16.9 micromoles/g FWT/min | GS Activity, Root [7]: Root: 6.4 micromoles/g FWT/min | Leaf/Root GS Activity Ratio [7]: 2.64 | time to reach the mid-log phase of growth [8]: approximately 40 h | number of plants infested with thrip [9]: 11 | Foliar Fresh Weight, Treated plants [10]: 1.55* g | Foliar Fresh Weight, Treated plants [11]: 1.85* g | Foliar Fresh Weight, Treated plants [12]: 19.08** g

O=C1CCC(C(=O)O)N1 (centres unmarked) [5-oxoproline, 2-pyrrolidone-5-carboxylic acid]
fresh foliar weight, percent of untreated control plants [13]: 126%

N[C@@H](CC[C@]1(O)CNC1=O)C(=O)O [Tabtoxinine-β-lactam, tabtoxinine-β-lactam, reference compound]
Whole Plant Fresh Weight (FWT) [6]: 24.6 g | 2-Hydroxy-5-oxoproline in Leaf [6]: 16.6 micromoles/g FWT | GS Activity, Leaf [7]: Leaf: 25.9 micromoles/g FWT/min | GS Activity, Root [7]: Root: 3.9 micromoles/g FWT/min | Leaf/Root GS Activity Ratio [7]: 6.6
